# Measurements: patent US20230123334A1, “AMINO LIPID COMPOUND, PREPARATION METHOD THEREFOR, AND APPLICATION THEREOF” (SHENZHEN SHENXIN BIOTECHNOLOGY CO., LTD., priority 2020, published 2023)
# Tested on: HEK293 cells
# Experiment: Preliminary screening as mRNA vectors, EGFP mRNA transfection of HEK293 cells
# Assay type: cell-based
# Settings: EGFP mRNA 50 ng per well, 96-well plates; percentage of GFP fluorescent cells relative to total number of cells (Hoechst)
# Method in brief: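 Screening format: EGFP mRNA transfection (50 ng/well) into HEK293 in 10% FBS-supplemented DMEM. Percent green fluorescent cells, normalised to Hoechst nuclear count, gave the value; Lipofectamine2000 was the reference transfectant.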
row,SMILES,Absolute mRNA transfection efficiency in HEK293 cells [%]
1,CCCCCCCCCSc1nc(NCCCN2CCN(C)CC2)nc(SCCCCCC)n1 [Compound D9S6S9],5.6
2,CCCCCCCCCCSc1nc(NCCCN2CCN(C)CC2)nc(SCCCCCC)n1 [Compound D9S6S10],23.7
3,CCCCCCCCCCCSc1nc(NCCCN2CCN(C)CC2)nc(SCCCCCC)n1 [Compound D9S6S11],8.5
4,CCCCCCCCCCCCSc1nc(NCCCN2CCN(C)CC2)nc(SCCCCCC)n1 [Compound D9S6S12],1.0
5,CCCCCCCCCCCCCCSc1nc(NCCCN2CCN(C)CC2)nc(SCCCCCC)n1 [Compound D9S6S14],35.8
6,CCCCCCCCCCCCCCCSc1nc(NCCCN2CCN(C)CC2)nc(SCCCCCC)n1 [Compound D9S6S15],6.5
7,CCCCCCCCCCCCCCCCSc1nc(NCCCN2CCN(C)CC2)nc(SCCCCCC)n1 [Compound D9S6S16],38.2
8,CCCCCCCCCCCCCCCCCCSc1nc(NCCCN2CCN(C)CC2)nc(SCCCCCC)n1 [Compound D9S6S18],62.8
9,CCCCCCCSc1nc(NCCCCCC)nc(NCCCN2CCN(C)CC2)n1 [Compound D9S7N6],0.8
10,CCCCCCCNc1nc(NCCCN2CCN(C)CC2)nc(SCCCCCCC)n1 [Compound D9S7N7],2.5
11,CCCCCCCCNc1nc(NCCCN2CCN(C)CC2)nc(SCCCCCCC)n1 [Compound D9S7N8],1.7
12,CCCCCCCCCNc1nc(NCCCN2CCN(C)CC2)nc(SCCCCCCC)n1 [Compound D9S7N9],5.2
13,CCCCCCCCCCCNc1nc(NCCCN2CCN(C)CC2)nc(SCCCCCCC)n1 [Compound D9S7N11],13.8
14,CCCCCCCCCCCCNc1nc(NCCCN2CCN(C)CC2)nc(SCCCCCCC)n1 [Compound D9S7N12],62.7
15,CCCCCCCCCCCCCNc1nc(NCCCN2CCN(C)CC2)nc(SCCCCCCC)n1 [Compound D9S7N13],60.4
16,CCCCCCCCCCCCCCCNc1nc(NCCCN2CCN(C)CC2)nc(SCCCCCCC)n1 [Compound D9S7N15],32.6
17,CCCCCCCCCCCCCCCCNc1nc(NCCCN2CCN(C)CC2)nc(SCCCCCCC)n1 [Compound D9S7N16],29.3
18,CCCCCCCCCCCCCCCCCCNc1nc(NCCCN2CCN(C)CC2)nc(SCCCCCCC)n1 [Compound D9S7N18],37.1
19,CCCCCCCSc1nc(NCCCN2CCN(C)CC2)nc(SCCCCCCC)n1 [Compound D9S7S7],18.3
20,CCCCCCCCSc1nc(NCCCN2CCN(C)CC2)nc(SCCCCCCC)n1 [Compound D9S7S8],43.7
21,CCCCCCCCCSc1nc(NCCCN2CCN(C)CC2)nc(SCCCCCCC)n1 [Compound D9S7S9],35.3
22,CCCCCCCCCCSc1nc(NCCCN2CCN(C)CC2)nc(SCCCCCCC)n1 [Compound D9S7S10],47.1
23,CCCCCCCCCCCSc1nc(NCCCN2CCN(C)CC2)nc(SCCCCCCC)n1 [Compound D9S7S11],80.0

row,SMILES,Absolute mRNA transfection efficiency in HEK293 cells [%]
1,CCCCCCCCCCCCSc1nc(NCCCN2CCN(C)CC2)nc(SCCCCCCC)n1 [Compound D9S7S12],26.4
2,CCCCCCCCCCCCCCSc1nc(NCCCN2CCN(C)CC2)nc(SCCCCCCC)n1 [Compound D9S7S14],34.5
3,CCCCCCCCCCCCCCCSc1nc(NCCCN2CCN(C)CC2)nc(SCCCCCCC)n1 [Compound D9S7S15],9.6
4,CCCCCCCCCCCCCCCCSc1nc(NCCCN2CCN(C)CC2)nc(SCCCCCCC)n1 [Compound D9S7S16],9.2
5,CCCCCCCCCCCCCCCCCCSc1nc(NCCCN2CCN(C)CC2)nc(SCCCCCCC)n1 [Compound D9S7S18],34.3
6,CCCCCCCCSc1nc(NCCCCCC)nc(NCCCN2CCN(C)CC2)n1 [Compound D9S8N6],0.7
7,CCCCCCCCSc1nc(NCCCCCCC)nc(NCCCN2CCN(C)CC2)n1 [Compound D9S8N7],1.4
8,CCCCCCCCNc1nc(NCCCN2CCN(C)CC2)nc(SCCCCCCCC)n1 [Compound D9S8N8],4.5
9,CCCCCCCCCNc1nc(NCCCN2CCN(C)CC2)nc(SCCCCCCCC)n1 [Compound D9S8N9],57.0
10,CCCCCCCCCCCNc1nc(NCCCN2CCN(C)CC2)nc(SCCCCCCCC)n1 [Compound D9S8N11],81.7
11,CCCCCCCCCCCCNc1nc(NCCCN2CCN(C)CC2)nc(SCCCCCCCC)n1 [Compound D9S8N12],57.6
12,CCCCCCCCCCCCCNc1nc(NCCCN2CCN(C)CC2)nc(SCCCCCCCC)n1 [Compound D9S8N13],46.5
13,CCCCCCCCCCCCCCCNc1nc(NCCCN2CCN(C)CC2)nc(SCCCCCCCC)n1 [Compound D9S8N15],37.8
14,CCCCCCCCCCCCCCCCNc1nc(NCCCN2CCN(C)CC2)nc(SCCCCCCCC)n1 [Compound D9S8N16],21.2
15,CCCCCCCCCCCCCCCCCCNc1nc(NCCCN2CCN(C)CC2)nc(SCCCCCCCC)n1 [Compound D9S8N18],29.4
16,CCCCCCCCSc1nc(NCCCN2CCN(C)CC2)nc(SCCCCCCCC)n1 [Compound D9S8S8],53.3
17,CCCCCCCCCSc1nc(NCCCN2CCN(C)CC2)nc(SCCCCCCCC)n1 [Compound D9S8S9],85.2
18,CCCCCCCCCCSc1nc(NCCCN2CCN(C)CC2)nc(SCCCCCCCC)n1 [Compound D9S8S10],79.4
19,CCCCCCCCCCCSc1nc(NCCCN2CCN(C)CC2)nc(SCCCCCCCC)n1 [Compound D9S8S11],97.6
20,CCCCCCCCCCCCSc1nc(NCCCN2CCN(C)CC2)nc(SCCCCCCCC)n1 [Compound D9S8S12],23.6
21,CCCCCCCCCSc1nc(NCCCCCC)nc(NCCCN2CCN(C)CC2)n1 [Compound D9S9N6],1.8
22,CCCCCCCCCSc1nc(NCCCCCCC)nc(NCCCN2CCN(C)CC2)n1 [Compound D9S9N7],2.8
23,CCCCCCCCCSc1nc(NCCCCCCCC)nc(NCCCN2CCN(C)CC2)n1 [Compound D9S9N8],9.2

row,SMILES,Absolute mRNA transfection efficiency in HEK293 cells [%]
1,CCCCCCCCCNc1nc(NCCCN2CCN(C)CC2)nc(SCCCCCCCCC)n1 [Compound D9S9N9],76.1
2,CCCCCCCCCCCNc1nc(NCCCN2CCN(C)CC2)nc(SCCCCCCCCC)n1 [Compound D9S9N11],49.2
3,CCCCCCCCCCCCNc1nc(NCCCN2CCN(C)CC2)nc(SCCCCCCCCC)n1 [Compound D9S9N12],36.0
4,CCCCCCCCCCCCCNc1nc(NCCCN2CCN(C)CC2)nc(SCCCCCCCCC)n1 [Compound D9S9N13],20.0
5,CCCCCCCCCCCCCCCNc1nc(NCCCN2CCN(C)CC2)nc(SCCCCCCCCC)n1 [Compound D9S9N15],6.3
6,CCCCCCCCCCCCCCCCNc1nc(NCCCN2CCN(C)CC2)nc(SCCCCCCCCC)n1 [Compound D9S9N16],16.7
7,CCCCCCCCCCCCCCCCCCNc1nc(NCCCN2CCN(C)CC2)nc(SCCCCCCCCC)n1 [Compound D9S9N18],14.5
8,CCCCCCCCCCSc1nc(NCCCCCC)nc(NCCCN2CCN(C)CC2)n1 [Compound D9S10N6],1.1
9,CCCCCCCCCCSc1nc(NCCCCCCC)nc(NCCCN2CCN(C)CC2)n1 [Compound D9S10N7],0.8
10,CCCCCCCCCCSc1nc(NCCCCCCCC)nc(NCCCN2CCN(C)CC2)n1 [Compound D9S10N8],5.4
11,CCCCCCCCCCSc1nc(NCCCCCCCCC)nc(NCCCN2CCN(C)CC2)n1 [Compound D9S10N9],10.5
12,CCCCCCCCCCCNc1nc(NCCCN2CCN(C)CC2)nc(SCCCCCCCCCC)n1 [Compound D9S10N11],11.3
13,CCCCCCCCCCCCNc1nc(NCCCN2CCN(C)CC2)nc(SCCCCCCCCCC)n1 [Compound D9S10N12],6.0
14,CCCCCCCCCCCCCNc1nc(NCCCN2CCN(C)CC2)nc(SCCCCCCCCCC)n1 [Compound D9S10N13],2.7
15,CCCCCCCCCCCCCCCNc1nc(NCCCN2CCN(C)CC2)nc(SCCCCCCCCCC)n1 [Compound D9S10N15],5.4
16,CCCCCCCCCCCCCCCCNc1nc(NCCCN2CCN(C)CC2)nc(SCCCCCCCCCC)n1 [Compound D9S10N16],13.6
17,CCCCCCCCCCCCCCCCCCNc1nc(NCCCN2CCN(C)CC2)nc(SCCCCCCCCCC)n1 [Compound D9S10N18],9.0
18,CCCCCCCCCCCSc1nc(NCCCCCC)nc(NCCCN2CCN(C)CC2)n1 [Compound D9S11N6],12.2
19,CCCCCCCCCCCSc1nc(NCCCCCCC)nc(NCCCN2CCN(C)CC2)n1 [Compound D9S11N7],10.5
20,CCCCCCCCCCCSc1nc(NCCCCCCCC)nc(NCCCN2CCN(C)CC2)n1 [Compound D9S11N8],37.6
21,CCCCCCCCCCCSc1nc(NCCCCCCCCC)nc(NCCCN2CCN(C)CC2)n1 [Compound D9S11N9],60.3
